US10744134B2, “Pharmaceutical composition for cancer immunotherapy and/or immunological activation containing diamino heterocyclic carboxamide compound as active ingredient” (Astellas Pharma Inc., priority 2015, dated 2020)

Legend:
[1] = test system: malignant melanoma; details: first-line, malignant melanoma patients; cited from earlier work
[2] = test system: CD4+ and CD8+ T cells; test: Immune activation: flow cytometry of CD4+ and CD8+ T cells in spleen and tumor of MC38 cancer-bearing mice (Example 2); format: in vivo, C57BL/6J mouse; details: 100 mg/kg qd oral for seven days
Procedure: (§1) Evaluation of Immune Activation of Compound a with Respect to Colon Carcinoma Cell Line MC38 Cancer-Bearing Model
(§2) MC38 subcutaneous cancer-bearing mice were prepared by subcutaneously transplanting MC38 cells on the back of C57BL/6J mouse (female, Charles river, Japan). After confirming the engraftment of the tumor, hemifumarate of the compound A, which is the test compound, was orally administered to seven mice at a dose of 100 mg/kg (in terms of free form) once a day for seven days. As a control, 0.5% of methylcellulose was also orally administered to seven mice at the same dose of 100 mg/kg once a day for seven days, which was the same administration as the group administered at a 100 mg/kg. After measuring the tumor volume change on the 4th and 7th days, spleens and tumors were collected from a total of six mice of three examples (control-1, control-2, and control-3) extracted from the control group and three examples extracted from the compound A administered groups (COMPOUND A 100 mg/kg qd-1, COMPOUND A 100 mg/kg qd-2, and COMPOUND A 100 mg/kg qd-3). Then, staining was performed with anti CD3 antibody (eBioscience), anti CD4 antibody (Biolegend), anti CD8 antibody (eBioscienec), anti CD45 antibody (Biolegend), and the number of positive cells of each antigen was measured using a flow cytometer (BD FACS Verse).

[3] = test system: colon carcinoma cell line MC38; test: Tumor volume change in MC38 subcutaneous cancer-bearing mice (Example 2); format: in vivo, C57BL/6J mouse; details: hemifumarate, oral, 100 mg/kg (free form) once a day for seven days; individuals qd-2 and qd-3; measured on 4th and 7th days; FIG. 2
Procedure: as §1, §2

[4] = test system: colon carcinoma cell line MC38; test: Anti-tumor evaluation (in vivo) in colon carcinoma cell line MC38 cancer-bearing model (Example 1); parameters: species or system C57BL/6J mice; details: hemifumarate of compound A, oral, vs control group, FIG. 1
Procedure: Evaluation of Anti-Tumor (In Vivo) of Compound a with Respect to Colon Carcinoma Cell Line MC38 Cancer-Bearing Model
The colon cancer cell line MC38 cells (National Cancer Institute) were cultured in Dulbecco's modified Eagle's minimum essential medium (DMEM) supplemented with 10% Fetal Bovine Serum (FBS). MC38 subcutaneous cancer-bearing mice were subsequently prepared by subcutaneously transplanting MC38 cells on the back of C57BL/6J mice (female, Charles river, Japan). After confirming the engraftment of the tumor, the change in the tumor volume of each of the group (COMPOUND A 30 mg/kg bid) in which hemifumarate of the compound A, which is a test compound, dissolved in 0.5% of methyl cellulose is orally administered at a dose of 30 mg/kg (in terms of free form) twice a day for 17 days, the group (COMPOUND A 60 mg/kg qd) in which hemifumarate of the compound A is orally administered at a dose of 60 mg/kg (in terms of free form) once a day for 17 days, and the control group in which the compound A is not administered, was measured at a frequency of twice a week.

Molecule	overall survival extended, share of the nivolumab group [1]	proportion of the number of CD8+ cells in CD45+ and CD3+ cells in a tumor ([2]; individuals qd-2 and qd-3 in which tumor growth was suppressed, FIG. 5)	proportion of the number of CD4+ cells in CD45+ and CD3+ cells in spleen ([2]; three mice vs three controls, FIG. 3)	proportion of the number of CD8+ cells in CD45+ and CD3+ cells in spleen ([2]; three mice vs three controls, FIG. 4)	tumor volume [3]	tumor volume ([4]; 30 mg/kg (free form) twice a day for 17 days)	tumor volume ([4]; 60 mg/kg (free form) once a day for 17 days)
nivolumab: anti-PD-1 antibody marketed as a therapeutic agent for malignant melanoma and non-small cell lung cancer	72.9%	–	–	–	–	–	–
CCc1nc(C(N)=O)c(Nc2ccc(N3CCC(N4CCN(C)CC4)CC3)c(OC)c2)nc1NC1CCOCC1 [compound A, 6-ethyl-3-({3-methoxy-4-[4-(4-methylpiperazin-1-yl)piperidin-1-yl]phenyl}amino)-5-(tetrahydro-2H-pyran-4-ylamino)pyrazine-2-carboxamide]	–	the increase of the number of CD8+ cells was observed	the increase in the number of CD4+ cells and CD8+ cells in spleen was observed	the increase in the number of CD4+ cells and CD8+ cells in spleen was observed	the increase in the tumor volume was hardly observed	strong effect of suppressing the increase in the tumor volume	strong effect of suppressing the increase in the tumor volume
